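96-well plates; 48 h exposure; 5 concentrations. Endpoints by linear interpolation between flanking doses. Not reached: highest tested concentration assigned. Definition used: TGI = concentration required for complete inhibition of growth.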
Assays:
Assay in all cases: NCI anticancer screen, dose series, 48 h
[1] = test system: HCT-15 colon
[2] = test system: MDA-N
[3] = test system: MOLT-4 leukemia
[4] = test system: NCI-H522 lung
[5] = test system: OVCAR-4 ovarian
[6] = test system: PC-3 prostate
[7] = test system: SNB-19 CNS
[8] = test system: SW-620 colon
[9] = test system: T-47D breast
[10] = test system: SF-268 CNS
[11] = test system: SF-539 CNS

Measured: TGI

NC(=S)NC/C=C/Cl
> 100 µM: [1] | [2] | [3] | [4] | [5] | [6] | [7] | [8] | [9]

Cc1ccccc1NC(=O)CC(=O)NNC(Sc1ccccc1)c1cc(N=Nc2ccc(Br)cc2)ccc1O (centres undefined)
4.73 µM: [11]
> 10 µM: [1] | [2] | [4] | [5] | [6] | [10] | [7] | [8] | [9]
3.1 µM: [3]

CC(=O)OC[C@H]1On2nnnc2[C@H](OC(C)=O)[C@@H](OC(C)=O)[C@@H]1OC(C)=O
> 100 µM: [1] | [2] | [3] | [4] | [5] | [6] | [10] | [11] | [8] | [9]

O=C(N=Nc1ccccc1Cl)NNc1ccccc1Cl
82.9 µM: [3]
52.7 µM: [4]
58.5 µM: [5]
> 100 µM: [1] | [2] | [6] | [10] | [7] | [8] | [9]

CCN(CC)C(=O)CCN1CC1
> 10 µM: [1] | [2] | [3] | [4] | [5] | [6] | [10] | [11] | [7] | [9]

CCOC(=O)CCC(C(=O)OCC)n1nnc2cc(Nc3c(C)[n+]([O-])c4cc(F)c(OCC)cc4[n+]3[O-])ccc21 (centres undefined)
> 100 µM: [1] | [2] | [3] | [4] | [5] | [6] | [11] | [7] | [8] | [9]
94.9 µM: [10]

CC(C)Oc1cccc(N2C(Nc3ccccc3)=Nc3ccncc3S2(=O)=O)c1
44.9 µM: [11]
45.6 µM: [6]
57.4 µM: [8]
90.1 µM: [9]
> 100 µM: [2] | [3] | [4] | [5] | [10] | [7]
75.5 µM: [1]

COc1cccc(C2c3cc4c(cc3OC(Nc3ccccc3)C2C)OCO4)c1O (centres undefined)
> 55.6 µM: [10]
36.9 µM: [6]
48.4 µM: [1]
> 100 µM: [5]
20.6 µM: [4]
18.1 µM: [11]
> 75.4 µM: [9]
6.98 µM: [2]
36.8 µM: [8]
74 µM: [7]
16 µM: [3]

N#Cc1c(N)nc2c3c1NC(=O)C(C(N)=O)C3c1ccccc1O2 (centres undefined)
70.6 µM: [4]
> 100 µM: [1] | [2] | [3] | [5] | [6] | [10] | [11] | [7] | [8] | [9]

CC(CNC(N)=O)NC(N)=O (centres undefined)
> 100 µM: [1] | [2] | [3] | [4] | [5] | [6] | [10] | [11] | [7] | [8] | [9]

NC(N)=NC1C(O)C(O)C(O)C(N=C(N)N)C1O (centres undefined)
> 100 µM: [1] | [2] | [3] | [4] | [5] | [6] | [10] | [11] | [7] | [8] | [9]

COc1ccccc1NC(=O)CC(=O)NN
> 100 µM: [1] | [2] | [3] | [4] | [5] | [6] | [10] | [11] | [7] | [8] | [9]

O=C(c1ccc(Cl)cc1)N1CCN=C1c1cc2ccccc2c2ccccc12
30.5 µM: [7]
37.2 µM: [6]
27.7 µM: [5]
54.4 µM: [9]
32.2 µM: [8]
31.3 µM: [1]
> 100 µM: [3]
29.1 µM: [11]
31.9 µM: [2] | [10]

S=C1SC(=Nc2ccccc2)C(=Nc2ccccc2)N1c1ccc2ccccc2c1
> 100 µM: [1] | [2] | [4] | [5] | [6] | [7] | [9]

CCOC(=O)c1cc(Br)c(-c2onc(C)c2Br)[nH]1
74.8 µM: [7]
> 100 µM: [1] | [2] | [3] | [5] | [6] | [10] | [11] | [8] | [9]
